Experimental data published in patent publication US20160325113A1, “Phototherapy Devices and Methods Comprising Optionally Substituted Quinquiesphenyl Compounds” (NITTO DENKO CORPORATION, priority 2012, published 2016).
Read-outs that look alike come from different tables or passages of the source.

Experiments:
[1] = tested on: actinic keratoses lesions; experiment: Topical photosensitizer plus red OLED illumination of actinic keratoses lesions; settings: 20% topical solution; illuminated with red OLED about 14-18 hours after application
Experimental: About 14-18 hours after application, the treated lesions are illuminated with a red light-emitting OLED device constructed as set forth in Example 2.
The treatment is repeated as needed.
The excess cream is removed with saline, and the lesions are illuminated with the red light-emitting OLED constructed as set forth in Example 2.

[2] = set-up: species or system person; settings: in vivo, iv
[3] = Intravenous verteporphin plus red OLED illumination of the retina, pathological myopia; format: in vivo, person; settings: about 6 mg/m^2 i.v.; retina illuminated with red OLED about 15 minutes after start of infusion
Experimental: Verteporphin is intravenously injected, over a period of about 10 minutes at a rate of about 3 mL/min, to a person suffering from pathological myopia. The verteporphin (7.5 mL of 2 mg/mL reconstituted solution, available as Visudyne® from Novartis) is diluted with 5% dextrose to a volume of 30 mL using a sufficient quantity of the reconstituted verteporphin so that the total dose injected is about 6 mg/m^2 of body surface. About 15 minutes after the start of the 10 minute infusion of verteporphin, the verteporphin is activated by illuminating the retina with a red light-emitting OLED device as set forth in Example 2. […] The treatment is repeated as needed.

[4] = Intravenous verteporphin plus red OLED illumination of the retina, age-related macular degeneration; format: in vivo, person; settings: about 6 mg/m^2 i.v.; retina illuminated with red OLED about 15 minutes after start of infusion
Experimental: Verteporphin is intravenously injected, over a period of about 10 minutes at a rate of about 3 mL/min, to a person suffering from age-related macular degeneration. The verteporphin (7.5 mL of 2 mg/mL reconstituted solution, available as Visudyne® from Novartis) is diluted with 5% dextrose to a volume of 30 mL using a sufficient quantity of the reconstituted verteporphin so that the total dose injected is about 6 mg/m^2 of body surface. About 15 minutes after the start of the 10 minute infusion of verteporphin, the verteporphin is activated by illuminating the retina with a red light-emitting OLED device as set forth in Example 2.

Compound	number or severity of the lesions after treatment [1]	patient's vision after treatment [2]	patient's vision after treatment [3]	patient's vision after treatment [4]
Cl.NCC(=O)CCC(=O)O [5-Aminolevulinic acid HCl]	reduced			
C=Cc1c(C)c2cc3nc(cc4[nH]c(cc5nc(cc1[nH]2)C(C)=C5CCC(=O)O)c(CCC(=O)OC)c4C)[C@@]1(C)C3=CC=C(C(=O)OC)[C@H]1C(=O)OC [Verteporphin]		stabilized	stabilized	stabilized
